# Laboratory results published in patent US8329645B2, “Polymyxin derivatives and uses thereof” (priority 2008, dated 2012).
# Experiments:
# P. vulgaris ATCC13315 = assay: E-test MIC with or without NAB7061 (4 μg/ml), Mueller-Hinton agar; format: cell-based
# Procedure: (§1) MICs were determined by using E-strips (Biodisk Ltd., Solna, Sweden) according to the manufacturer's instructions.
# (§2) The strains originated from ATCC (11 strains), CCUG (11 strains), and NCTC (The National Collection of Type Cultures, Colindale, U.K.; 2 strains). Eight strains (the F-strains) were purchased from Mobidiag Ltd., Helsinki, Finland.
# S. maltophilia ATCC17444 = assay: as above; format: cell-based
# Procedure: as §1, §2
# P. aeruginosa CCUG51971 = assay: as above; format: cell-based, Pseudomonas aeruginosa
# Procedure: as §1, §2
# P. aeruginosa F58 = assay: as above; format: cell-based, Pseudomonas aeruginosa
# Procedure: as §1, §2
# P. aeruginosa ATCC27853 = assay: as above; format: cell-based, Pseudomonas aeruginosa
# Procedure: as §1, §2
# K. pneumoniae ATCC13883 = details: K. pneumoniae ATCC13883
# Summary of the method: (§3)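 Strips carrying an antibiotic concentration gradient were placed on inoculated plates following the supplier's directions, and the MIC was then recorded.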
# E. coli ATCC25922 = details: E. coli ATCC25922
# Summary of the method: as §3
# A. baumannii F264 = assay: E-test MIC of antibiotics on Mueller Hinton agar containing increasing concentrations of NAB739; format: cell-based, Acinetobacter baumannii
# K. pneumoniae F136 = assay: E-test MIC with or without NAB7061 (4 μg/ml), Mueller-Hinton agar; format: cell-based, Klebsiella pneumoniae
# Procedure: as §1, §2
# K. pneumoniae F144 = assay: as above; format: cell-based, Klebsiella pneumoniae
# Procedure: as §1, §2
# K. pneumoniae CCUG45421 = assay: as above; format: cell-based, Klebsiella pneumoniae
# Procedure: as §1, §2
# K. pneumoniae F145 = assay: as above; format: cell-based, Klebsiella pneumoniae
# Procedure: as §1, §2
# P. aeruginosa ATCC 27853 = assay: E-test MIC of antibiotics on Mueller Hinton agar containing increasing concentrations of NAB739; format: cell-based, Pseudomonas aeruginosa
# E. coli NCTC13353 = assay: E-test MIC with or without NAB7061 (4 μg/ml), Mueller-Hinton agar; format: cell-based, Escherichia coli
# Summary of the method: as §3
# E. coli CCUG41432 = assay: as above; format: cell-based, Escherichia coli
# Summary of the method: as §3
# E. coli CCUG41429 = assay: as above; format: cell-based, Escherichia coli
# Summary of the method: as §3
# E. coli CCUG41427 = assay: as above; format: cell-based, Escherichia coli
# Summary of the method: as §3
smiles,measurement,setting,value
CO[C@H]1/C=C/O[C@@]2(C)Oc3c(C)c(O)c4c(O)c(c(/C=N/N5CCN(C)CC5)c(O)c4c3C2=O)NC(=O)/C(C)=C\C=C\[C@H](C)[C@H](O)[C@@H](C)[C@@H](O)[C@@H](C)[C@H](OC(C)=O)[C@@H]1C [Rifampin],MIC of antibiotic in the presence of 4 μg/ml of NAB 7061,P. vulgaris ATCC13315,1 to 1.5 mg/L
same,Sensitization factor to antibiotic (MIC without / with 4 μg/ml of NAB 7061),P. vulgaris ATCC13315,<2
same,MIC of antibiotic in the presence of 4 μg/ml of NAB 7061,S. maltophilia ATCC17444,2 mg/L
same,Sensitization factor to antibiotic (MIC without / with 4 μg/ml of NAB 7061),S. maltophilia ATCC17444,4-8
same,MIC of antibiotic in the presence of 4 μg/ml of NAB 7061,P. aeruginosa CCUG51971,>32 mg/L
same,Sensitization factor to antibiotic (MIC without / with 4 μg/ml of NAB 7061),P. aeruginosa CCUG51971,<2
same,MIC of antibiotic in the presence of 4 μg/ml of NAB 7061,P. aeruginosa F58,>32 mg/L
same,Sensitization factor to antibiotic (MIC without / with 4 μg/ml of NAB 7061),P. aeruginosa F58,<2
same,MIC of antibiotic in the presence of 4 μg/ml of NAB 7061,P. aeruginosa ATCC27853,12 to 16 mg/L
same,Sensitization factor to antibiotic (MIC without / with 4 μg/ml of NAB 7061),P. aeruginosa ATCC27853,2
same,Sensitization factor to antibiotic (MIC without / with 4 μg/ml of NAB 7061),K. pneumoniae ATCC13883,250-500
same,MIC of antibiotic in the presence of 4 μg/ml of NAB 7061,E. coli ATCC25922,0.016 to 0.047 mg/L
same,Sensitization factor to antibiotic (MIC without / with 4 μg/ml of NAB 7061),E. coli ATCC25922,250-750
same,MIC of antibiotic in the presence of NAB739,A. baumannii F264; NAB 739 0 μg/ml,12 mg/L
same,MIC of antibiotic in the presence of NAB739,A. baumannii F264; NAB 739 0.5 μg/ml,0.094 mg/L
same,MIC of antibiotic in the presence of NAB739,A. baumannii F264; NAB 739 1 μg/ml,0.016 mg/L
same,MIC of antibiotic in the presence of NAB739,A. baumannii F264; NAB 739 […],0.38 mg/L
same,MIC of antibiotic in the presence of 4 μg/ml of NAB 7061,K. pneumoniae F136,0.75 mg/L
same,Sensitization factor to antibiotic (MIC without / with 4 μg/ml of NAB 7061),K. pneumoniae F136,>43
same,MIC of antibiotic in the presence of 4 μg/ml of NAB 7061,K. pneumoniae F144,0.19 mg/L
same,Sensitization factor to antibiotic (MIC without / with 4 μg/ml of NAB 7061),K. pneumoniae F144,>170
same,MIC of antibiotic in the presence of 4 μg/ml of NAB 7061,K. pneumoniae CCUG45421,2 to 3 mg/L
same,Sensitization factor to antibiotic (MIC without / with 4 μg/ml of NAB 7061),K. pneumoniae CCUG45421,10-20
same,MIC of antibiotic in the presence of 4 μg/ml of NAB 7061,K. pneumoniae F145,0.19 to 0.25 mg/L
same,Sensitization factor to antibiotic (MIC without / with 4 μg/ml of NAB 7061),K. pneumoniae F145,170
same,MIC of antibiotic in the presence of NAB739,P. aeruginosa ATCC 27853; NAB 739 0 μg/ml,32 mg/L
same,MIC of antibiotic in the presence of NAB739,P. aeruginosa ATCC 27853; NAB 739 0.5 μg/ml,32 mg/L
same,MIC of antibiotic in the presence of NAB739,P. aeruginosa ATCC 27853; NAB 739 1 μg/ml,16 mg/L
same,MIC of antibiotic in the presence of NAB739,P. aeruginosa ATCC 27853; NAB 739 2 μg/ml,4 mg/L
same,MIC of antibiotic in the presence of NAB739,P. aeruginosa ATCC 27853; NAB 739 […],32 mg/L
same,MIC of antibiotic in the presence of 4 μg/ml of NAB 7061,E. coli NCTC13353,0.064 mg/L
same,MIC of antibiotic in the presence of 4 μg/ml of NAB 7061,E. coli CCUG41432,0.032 mg/L
same,Sensitization factor to antibiotic (MIC without / with 4 μg/ml of NAB 7061),E. coli CCUG41432,180-250
same,MIC of antibiotic in the presence of 4 μg/ml of NAB 7061,E. coli CCUG41429,0.032 mg/L
same,MIC of antibiotic in the presence of 4 μg/ml of NAB 7061,E. coli CCUG41427,0.032 to 0.064 mg/L
same,Sensitization factor to antibiotic (MIC without / with 4 μg/ml of NAB 7061),E. coli CCUG41427,100-250
